Earlier results as cited in US20240325353A1, “COMPOUND FOR TREATMENT OF COGNITIVE DISORDERS” (Syndesi Therapeutics SA, priority 2021, published 2024).
Where two headings read alike, the source gives them in different places.

Key:
[1] = in vivo; cited from earlier work
[2] = target: T1, synaptic vesicle glycoprotein 2A (Homo sapiens, UniProt Q7L0J3); details: oral 100 mg for 4 days; cited from earlier work
T1 construct: from tissue; host or cells: brain of living healthy male subjects (PET)

SV2A [3] = target: T2, SV2A (Homo sapiens, UniProt Q7L0J3); details: cited from earlier work
Target sequence in this assay (Q7L0J3 whole entry, species assumed): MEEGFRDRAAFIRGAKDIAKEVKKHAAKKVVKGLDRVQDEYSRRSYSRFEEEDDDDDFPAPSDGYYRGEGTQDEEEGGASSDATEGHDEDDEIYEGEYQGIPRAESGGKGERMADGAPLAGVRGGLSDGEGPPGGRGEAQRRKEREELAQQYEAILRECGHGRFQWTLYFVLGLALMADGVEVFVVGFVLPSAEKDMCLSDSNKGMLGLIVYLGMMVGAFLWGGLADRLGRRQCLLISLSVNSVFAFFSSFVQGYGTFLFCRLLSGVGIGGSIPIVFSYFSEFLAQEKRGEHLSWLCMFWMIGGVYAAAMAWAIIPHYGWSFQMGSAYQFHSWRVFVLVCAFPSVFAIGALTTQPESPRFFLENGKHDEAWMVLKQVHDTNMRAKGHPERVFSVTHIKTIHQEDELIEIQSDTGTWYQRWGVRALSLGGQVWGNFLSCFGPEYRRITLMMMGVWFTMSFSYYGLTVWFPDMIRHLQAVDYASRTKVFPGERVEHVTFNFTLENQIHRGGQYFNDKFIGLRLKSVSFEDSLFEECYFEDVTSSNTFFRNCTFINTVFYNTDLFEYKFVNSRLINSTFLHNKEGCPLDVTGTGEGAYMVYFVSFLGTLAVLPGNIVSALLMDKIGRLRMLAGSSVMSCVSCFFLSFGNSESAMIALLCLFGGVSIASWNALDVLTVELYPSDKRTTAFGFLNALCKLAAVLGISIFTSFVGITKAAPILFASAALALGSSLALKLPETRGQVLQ

[4] = animals and humans; cited from earlier work
SV2A [5] = target: T3, SV2A (Mus musculus, UniProt Q9JIS5); details: audiogenic mice; cited from earlier work
T3 construct: host or cells: brain of audiogenic mice

SV2A [6] = target: T2, SV2A; set-up: host or cells: human brain (prediction for patients); details: cited from earlier work
Target sequence in this assay (Q7L0J3 whole entry): as the sequence (Q7L0J3 whole entry, species assumed) above

T1 sequence (Q7L0J3 whole entry): as the sequence (Q7L0J3 whole entry, species assumed) above
T3 sequence (Q9JIS5 whole entry): as the sequence (Q7L0J3 whole entry, species assumed) above, with S62A, T71A, E144D, A154T, G440S, S482A, I572V, M634L counted along it

CC[C@H](C(N)=O)N1CCCC1=O (single isomer, unassigned) [dextrorotatory enantiomer of levetiracetam]
activity in epilepsy [1]: completely lacks activity

CCC[C@@H]1CC(=O)N([C@@H](CC)C(N)=O)C1 [brivaracetam, (2S)-2-[(4R)-2-oxo-4-propyltetrahydro-1H-pyrrol-1-yl] butanamide]
SV2A occupancy at steady state, peak [2]: 82-87% | SV2A occupancy at steady state, trough [2]: 76-82% | affinity of binding to SV2A relative to levetiracetam (SV2A [3]): higher affinity than levetiracetam

CC[C@@H](C(N)=O)N1CCCC1=O [levetiracetam, (S)-(−)-alpha-ethyl-2-oxo-1-pyrrolidine acetamide]
impact on the cognitive function [4]: no impact on the cognitive function | SV2A occupancy needed to protect against clonic seizure (SV2A [5]): ~90% | predicted SV2A occupancy at Cmin and Cmax (SV2A [6]; patients receiving a 1 g daily dose): 80 to 93% | predicted SV2A occupancy at Cmin and Cmax (SV2A [6]; patients receiving a 3 g daily dose): 92 to 98%
